# Key:
# Assay type in all cases: biochemical
# HIV-1 RT [1] = biological target: T1, HIV-1 RT (Human immunodeficiency virus type 1 group M subtype B, UniProt P04585); assay: Gel-based single nucleotide incorporation assay by HIV-1 RT (primer-template P1T1); details: for % of P + 1 / % of P + 2: P1T1 125 nM
# T1 construct: HIV-1 Reverse Transcriptase serves, in the HIV-1 viral replication process, as catalyst; purchased Ambion
# Method: (§1) DNA polymerase reactions: end-labeled primer was annealed to its template by combining primer and template in a molar ratio of 1:2 and heating the mixture to 70° C. for 10 minutes followed by slow cooling to room temperature over a period of 1.5 hour. For the incorporation of a modified nucleoside, a series of 20 μL-batch reactions was performed with the enzyme HIV-1 RT (Ambion, 10 U/μL stock soln, specific activity 8.095 Wring, concentration 1.2 mg/mL). The final mixture contained 125 nM primer template complex, RT buffer (250 mM Tris.HCl, 250 mM KCl, 50 mM MgCl2, 2.5 mM spermidine, 50 mM dithiothreitol (DTT); pH 8.3), 0.025 U/μL HIV-1 RT, and different concentrations of the phosphoramidate to be tested (1 mM, 500 μM, 200 μM and 100 μM).
# (§2) Electrophoresis: all polymerase reaction aliquots (2.5 μL) were quenched by the addition of 10 μL of loading buffer (90% formamide, 0.05% bromophenol blue, 0.05% xylene cyanol and 50 mM ethylenediaminetetraacetic acid (EDTA)). Samples were heated at 85° C. for 5 minutes prior to analysis by electrophoresis for 2.5 hours at 2000 V on a 30 cm×40 cm×0.4 mm 20% (19:1 mono:bis) denaturing gel in the presence of a 100 mM Tris-borate, 2.5 mM EDTA buffer; pH 8.3. Products were visualized by phosphorimaging. The amount of radioactivity in the bands corresponding to the products of enzymatic reactions was determined by using the imaging device Cyclone@ and the Optiquant image analysis software (Perkin Elmer).
# Here, the ability of phosphoramidate analogues as substrate for HIV-1 RT was investigated by the gel-based single nucleotide incorporation assay. The natural nucleoside triphosphate (dATP) was used as reference.
# The ability of HIV-1 reverse transcriptase to incorporate phosphoramidate analogues 2-6 was analysed by gel-based single-nucleotide-incorporation assays using the primer-template complex P1T1.
# HIV-1 RT [2] = biological target: T1, HIV-1 RT; assay: Elongation of primer P1 directed by template T2 by HIV-1 RT; details: P1T2; for P+7 product: 60 min
# Method: as §1, §2
# In order to further investigate the potentiality of the leaving groups of this invention, L-Cys-dAMP (2) and 3-phosphono-L-Ala-dAMP (3) were tested in the template dependent incorporation of more than one phosphoramidate nucleotides by HIV-1 RT (FIG. 4). For this purpose, Primer P1 and template T2 containing an overhang of seven thymidine residues and four nucleobases (GGAC) at the 3′-end were used.
# In order to investigate the strand elongation capacity of compound 2, a template dependent incorporation of more than one nucleotide experiment was carried out. In this experiment HIV-1 RT and P1T2 duplex, where seven thymidine bases overhang of the template is flanked by four non-thymidine units at the 3′-end were used. A range of concentration of the building block was incubated with the primer-template complex and 0.025 U/μL of enzyme at the appropriate temperature, samples were quenched after 15, 30, 60, 90 and 120 minutes respectively and analyzed by 20% polyacrylamide gel electrophoresis.
# HIV-1 RT [3] = biological target: T1, HIV-1 RT; assay: Steady-state kinetics of single nucleotide incorporation by HIV-1 RT
# Method: The efficiency of incorporation by HIV-1 RT of 3-phosphono-L-Ala-dAMP (3) was investigated by determination of the kinetic parameters Km and Vmax. The steady-state kinetics assay was carried out as follows. The reaction was started by adding HIV-1 RT to P1-T1 complex, buffer, 3-phosphono-L-Ala-dAMP (3) and dATP. The final mixture (20 μL) contained 0.025 U/μL HIV-1 RT, buffer, 125 nM primer-template complex, and various concentrations 3-phosphono-L-Ala-dAMP and dATP. The range of concentrations for phosphoamidates was optimized according to a Km value for the incorporation of an individual nucleotide. In the case of HIV-1 RT, reaction mixtures containing the enzyme in concentration (0.025 U/μL) to attain 5-25% conversion and appropriate substrate concentration (0.5-100 μM used for 3-phosphono-L-Ala-dAMP (3) and 0.1-10 μM used for dATP) were incubated at 37° C. and run for 8-10 different time intervals (2-20 minutes). The incorporation velocities were calculated based on the percentage of single-nucleotide extension product (P+1 band). The kinetic parameters (Vmax and Km) were determined by plotting V (nM/min) versus substrate concentration (μM) and fitting the data point to a nonlinear Michaelis-Menten regression using GraphPad Prism software.
# Taq DNA polymerase = Taq DNA polymerase (Thermus aquaticus, UniProt P19821); assay: Single nucleotide incorporation using Taq DNA polymerase; details: P1T1
# Method: 3-phosphono-L-Ala-dAMP (3) was tested as a substrate for Taq DNA polymerase (data in FIG. 5).
# HIV-1 RT [4] = biological target: T1, HIV-1 RT; assay: Gel-based single nucleotide incorporation assay by HIV-1 RT (primer-template P1T1)
# [5] = P1T1 125 nM, HIV-1 RT 0.025 U/μL, 37° C.
# Taq DNA polymerase, sequence (P19821 whole entry): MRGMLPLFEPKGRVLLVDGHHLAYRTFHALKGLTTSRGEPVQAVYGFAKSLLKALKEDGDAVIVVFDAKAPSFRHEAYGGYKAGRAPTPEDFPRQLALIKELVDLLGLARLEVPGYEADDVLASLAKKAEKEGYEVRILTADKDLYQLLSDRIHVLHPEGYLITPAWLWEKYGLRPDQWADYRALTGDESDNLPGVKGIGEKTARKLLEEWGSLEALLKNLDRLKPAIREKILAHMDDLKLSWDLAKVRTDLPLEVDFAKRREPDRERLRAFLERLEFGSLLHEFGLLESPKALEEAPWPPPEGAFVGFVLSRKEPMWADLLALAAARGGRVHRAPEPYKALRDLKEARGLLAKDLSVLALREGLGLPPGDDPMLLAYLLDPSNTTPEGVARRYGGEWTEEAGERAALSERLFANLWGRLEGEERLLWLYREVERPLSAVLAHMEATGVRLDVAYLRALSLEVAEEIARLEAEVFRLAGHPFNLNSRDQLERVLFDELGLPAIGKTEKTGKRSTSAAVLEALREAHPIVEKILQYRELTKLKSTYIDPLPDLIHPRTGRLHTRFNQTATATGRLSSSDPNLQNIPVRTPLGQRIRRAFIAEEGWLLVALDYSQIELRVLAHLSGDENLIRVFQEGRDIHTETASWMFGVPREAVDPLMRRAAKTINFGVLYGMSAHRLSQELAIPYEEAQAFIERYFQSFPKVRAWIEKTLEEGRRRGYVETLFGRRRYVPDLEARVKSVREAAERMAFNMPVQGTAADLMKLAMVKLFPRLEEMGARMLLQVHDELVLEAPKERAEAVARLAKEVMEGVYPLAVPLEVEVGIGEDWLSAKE
compound,measurement,setting,value
"Nc1ncnc2c1ncn2[C@H]1C[C@H](O)[C@@H](COP(=O)(O)N[C@@H](CP(=O)(O)O)C(=O)O)O1 [Compound 3, 2′-deoxyadenosine-5′-(3-phosphono-L-alanine) phosphoramidate]",% of P + 1,"HIV-1 RT [1]; 50 μM substrate, 20 min",89.9%
same,% of P + 1,"HIV-1 RT [1]; 50 μM substrate, 30 min",92.6%
same,% of P + 1,"HIV-1 RT [1]; 50 μM substrate, 60 min",94.6%
same,% of P + 1,"HIV-1 RT [1]; 50 μM substrate, 120 min",95.9%
same,% of P + 1,"HIV-1 RT [1]; 100 μM substrate, 10 min",94.8%
same,% of P + 1,"HIV-1 RT [1]; 100 μM substrate, 20 min",97.7%
same,% of P + 1,"HIV-1 RT [1]; 100 μM substrate, 30 min",97.6%
same,% of P + 1,"HIV-1 RT [1]; 100 μM substrate, 60 min",97.9%
same,% of P + 1,"HIV-1 RT [1]; 100 μM substrate, 120 min",97.5%
same,% of P + 1,"HIV-1 RT [1]; 200 μM substrate, 10 min",91.7%
same,% of P + 2,"HIV-1 RT [1]; 200 μM substrate, 10 min",3.0%
same,% of P + 1,"HIV-1 RT [1]; 200 μM substrate, 20 min",93.8%
same,% of P + 2,"HIV-1 RT [1]; 200 μM substrate, 20 min",3.4%
same,% of P + 1,"HIV-1 RT [1]; 200 μM substrate, 30 min",93.7%
same,% of P + 2,"HIV-1 RT [1]; 200 μM substrate, 30 min",3.6%
same,% of P + 1,"HIV-1 RT [1]; 200 μM substrate, 60 min",93.0%
same,% of P + 2,"HIV-1 RT [1]; 200 μM substrate, 60 min",4.3%
same,% of P + 1,"HIV-1 RT [1]; 200 μM substrate, 120 min",94.2%
same,% of P + 2,"HIV-1 RT [1]; 200 μM substrate, 120 min",3.6%
same,% of P + 1,"HIV-1 RT [1]; 500 μM substrate, 10 min",88.8%
same,% of P + 2,"HIV-1 RT [1]; 500 μM substrate, 10 min",7.5%
same,% of P + 1,"HIV-1 RT [1]; 500 μM substrate, 20 min",88.4%
same,% of P + 2,"HIV-1 RT [1]; 500 μM substrate, 20 min",9.6%
same,% of P + 1,"HIV-1 RT [1]; 500 μM substrate, 30 min",86.9%
same,% of P + 2,"HIV-1 RT [1]; 500 μM substrate, 30 min",11.1%
same,% of P + 1,"HIV-1 RT [1]; 500 μM substrate, 60 min",87.0%
same,% of P + 2,"HIV-1 RT [1]; 500 μM substrate, 60 min",11.2%
same,% of P + 1,"HIV-1 RT [1]; 500 μM substrate, 120 min",87.0%
same,% of P + 2,"HIV-1 RT [1]; 500 μM substrate, 120 min",11.5%
same,% of P + 1,"HIV-1 RT [1]; 1 mM substrate, 10 min",80.6%
same,% of P + 2,"HIV-1 RT [1]; 1 mM substrate, 10 min",16.7%
same,% of P + 1,"HIV-1 RT [1]; 1 mM substrate, 20 min",73.7%
same,% of P + 2,"HIV-1 RT [1]; 1 mM substrate, 20 min",23.7%
same,% of P + 1,"HIV-1 RT [1]; 1 mM substrate, 30 min",75.9%
same,% of P + 2,"HIV-1 RT [1]; 1 mM substrate, 30 min",22.1%
same,% of P + 1,"HIV-1 RT [1]; 1 mM substrate, 60 min",76.3%
same,% of P + 2,"HIV-1 RT [1]; 1 mM substrate, 60 min",21.9%
same,% of P + 1,"HIV-1 RT [1]; 1 mM substrate, 120 min",76.4%
same,% of P + 2,"HIV-1 RT [1]; 1 mM substrate, 120 min",21.7%
same,fold more efficient incorporation compared with L-Cys-dAMP (2),HIV-1 RT [1]; HIV-1 RT single nucleotide incorporation,10.7 fold
same,primer extension products (in words),HIV-1 RT [2]; 50 μM and 100 μM substrate,only extended a primer with two and three adenine nucleobases
same,P+7 product,HIV-1 RT [2]; 200 μM substrate,7.1%
same,P+7 product,HIV-1 RT [2]; 500 μM substrate,15.9%
same,P+7 product,HIV-1 RT [2]; 1 mM substrate,23.8%
same,incorporation activity relative to natural dATP,HIV-1 RT [2],less active than the natural dATP
same,misincorporation (P+8),HIV-1 RT [2],did not result in any misincorporation
same,Km fold higher than the natural substrate dATP,HIV-1 RT [3],15 fold
same,Vmax fold lower than dATP,HIV-1 RT [3],1.7 fold
same,Km,HIV-1 RT [3]; [5],14.3 ± 3.78 µM
same,Vmax,HIV-1 RT [3]; [5],19.21 ± 1.58 nM/min
same,incorporation and primer extension by Taq DNA polymerase (in words),Taq DNA polymerase,less active than HIV-1 RT
same,Incorporation (conversion to a P+1 strand),HIV-1 RT [4]; 10 μM substrate,27.1%
same,% of P + 1,"HIV-1 RT [4]; 50 μM substrate, 10 min, P1T1 125 nM",84.5%
same,substrate quality for HIV-1 RT (in words),HIV-1 RT [4]; among phosphoramidate analogues 1-5,best incorporation efficiency

# Source: patent US20120245029A1, “NOVEL PHOSPH(ON)ATE- AND SULF(ON)ATE-BASED PHOSPHATE MODIFIED NUCLEOSIDES USEFUL AS SUBSTRATES FOR POLYMERASES AND AS ANTIVIRAL AGENTS” (priority 2009, published 2012)
